# Results published in US5663335A, “Immunosuppressive compounds and methods” (priority 1996, dated 1997).
# Like-named read-outs stand apart in the source and are kept apart here.
# Tested on: murine thymocytes (IL-1β action)
# Assay: Inhibition of IL-1 action: suppression of IL-1β + PHA stimulated thymocyte proliferation ((3H)-thymidine incorporation)
# Type: cell-based, mouse (C3H/HeN)
# Details: IL-1β 0.08 ng/ml + PHA 10 μg/ml
# Experimental: The ability of the above compounds to suppress the cell-proliferative effect of IL-1β (O'Gara, 1990) was examined as described in Example 11. Mouse thymocytes in culture were stimulated with IL-1β in the presence of phytohemagglutinin (PHA) and increasing concentrations of triptolide (control) and triptolide derivatives. The cells were cultured for 72 hours, and during the last 18 hours, incubated with tritiated thymidine. DNA synthesis was assessed by measuring incorporation of radiolabeled thymidine. The results expressed in terms of IC50 (concentration effective to cause 50% suppression of proliferation) are shown in Table I.
# Inhibition of IL-1 Action on Murine Thymocytes
# C3H/HeN mouse thymocytes were prepared and the action of IL-1 together with PHA, which stimulate proliferation of thymocyte, was measured using standard techniques (O'Gara, 1990; Mishell, 1980). Three- to six-week old C3H/HeN male mice (Simonson Laboratory, Gilroy, Calif.) were sacrificed by CO2 inhalation. Thymi were removed, separated from adherent non-thymic tissue, homogenized in Hank's balanced salt solution (HBSS, Gibco) using a glass homogenizer, and centrifuged at 200×g for 10 minutes at 15° C. Following an additional wash in HBSS, the thymocytes were resuspended in RPMI 1640 medium containing 50 uM 2-mercaptoethanol, 2 mM glutamine, 1 mM sodium pyruvate, non-essential amino acids 100 U/ml penicillin, 100 μg/ml streptomycin, and 10% heat-inactivated fetal bovine serum.
# Cells were cultured in round-bottom 96 well microtiter tissue culture plates, 6×10^5 cells per well, in a volume of 100 μl. Recombinant human IL-1β(R & D Systems #201-LB) together with Phytohemagglutinin P (PHA, Pharmacia) were added to the cells in volume of 25 μl per well to achieve a final concentration of 0.08 ng/ml and 10 μg/ml, respectively. Samples were dissolved in DMSO (10 mg/ml), then diluted in culture medium. […]
# Plates were incubated at 37° C. in a 5% CO2 incubator for 72 hours. […] Cells were then harvested and counted. […]
smiles,measurement,setting,value
"CC(C)[C@]12O[C@H]1[C@@H]1O[C@]13[C@]1(O[C@H]1C[C@H]1C4=C(CC[C@@]13C)C(=O)OC4)[C@@H]2O [Triptolide, triptolide]",IC50,"72 hours, read-out: IC50, IL-1 assay",~5 nM
same,IC50,"Mus musculus, Thymocyte, 72 h, read-out: IC50 (concentration effective to cause 50% suppression of proliferation), IL-1 assay",1.9 ng/mL
same,IC50,"Mus musculus, Thymocyte, 72 h, read-out: IC50, IL-1 assay",5.3 nM
